The text below walks through data of patent US6458813B1, “Substituted pyridine compounds and methods of use” (Amgen Inc., priority 1997, dated 2002).

The first experiment has as its system Cyclooxygenase enzyme (COX-1 and COX-2). The experiment can be described thus: Cyclooxygenase Enzyme Activity Assay (isoform not stated for the result). The conditions noted are these: COX-1 (THP-1) / COX-2 (HOSC) cell assays, PGE2 ELISA. In kind it is cell-based, human. On the procedure:
Cyclooxygenase Enzyme Activity Assay
The human monocytic leukemia cell line, THP-1, differentiated by exposure to phorbol esters expresses only COX-1; the human osteosarcoma cell line 143B expresses predominantly COX-2. THP-1 cells are routinely cultured in RPMI complete media supplemented with 10% FBS and human osteosarcoma cells (HOSC) are cultured in minimal essential media supplemented with 10% fetal bovine serum (MEM-10%FBS); all cell incubations are at 37° C. in a humidified environment containing 5% CO2.
In preparation for the COX-1 assay, THP-1 cells are grown to confluency, split 1:3 into RPMI containing 2% FBS and […] phorbol 12-myristate 13-acetate (TPA), and incubated for 48 hours on a shaker to prevent attachment. […] Arachidonic acid is added to a final concentration of […], the cells incubated for 20 minutes at 37° C., and enzyme activity determined as described below. […]
After incubation with arachidonic acid, the reactions are stopped by the addition of 1 N HCl, followed by neutralization with 1 N NaOH and centrifugation to pellet cell debris. Cyclooxygenase enzyme activity in both HOSC and THP-1 cell supernatants is determined by measuring the concentration of PGE2 using a commercially available ELISA (Neogen #404110). […]
`Cc1ccc(Nc2ccc(NC(=O)c3c(Cl)cccc3Cl)cn2)c(C)c1` [2-(2,4-dimethylphenylamino)-5-(2,6-dichlorophenylcarbonylamino)pyridine] showed an IC50 not above 10 µM.

In a further experiment the test system is production of tumor necrosis factor (TNF) by monocytes activated with bacterial lipopolysaccharide (LPS). The experiment in a line: Lipopolysaccharide-activated monocyte TNF production assay. In kind it is cell-based. The settings on record: Homo sapiens, adherent monocytes from PBMCs, 60 min with compound, then LPS 4 hrs, TNF in supernatants by ELISA, read-out: IC50 (concentration of test compounds causing a 50% reduction in TNF production). As to the method: Lipopolysaccharide-activated monocyte TNF production assay
Test compounds were evaluated in vitro for the ability to inhibit the production of tumor necrosis factor (TNF) by monocytes activated with bacterial lipopolysaccharide (LPS). Fresh residual source leukocytes (a byproduct of plateletpheresis) were obtained from a local blood bank, and peripheral blood mononuclear cells (PBMCs) were isolated by density gradient centrifugation on Ficol-Paque Plus (Pharmacia). PBMCs were suspended at 2×10^6/ml in DMEM supplemented to contain 2% FCS, 10 mM, 0.3 mg/ml […], 100 U/ml penicillin G and […] streptomycin sulfate (complete media). Cells were plated into Falcon flat bottom, 96 well culture plates (200 μl/well) and cultured overnight at 37° C. and 6% CO2. Non-adherent cells were removed by washing with 200 μl/well of fresh medium. Wells containing adherent cells (˜70% monocytes) were replenished with 100 μl of fresh medium.
Preparation of test compound stock solutions
Test compounds were dissolved in DMSO. Compound stock solutions were prepared to an initial concentration of […]. Stocks were diluted initially to 20-200 μM in complete media. Nine two-fold serial dilutions of each compound were then prepared in complete medium.
Treatment of cells with test compounds and activation of TNF production with lipopolysaccharide
One hundred microliters of each test compound dilution were added to microtiter wells containing adherent monocytes and 100 μl complete medium. Monocytes were cultured with test compounds for 60 min at which time 25 μl of complete medium containing 30 ng/ml lipopolysaccharide from E. coli K532 were added to each well. Cells were cultured an additional 4 hrs. Culture supernatants were then removed and TNF presence in the supernatants was quantified using an ELISA.
Flat bottom, 96 well Corning High Binding ELISA plates were coated overnight (4° C.) with 150 μL/well of 3 μg/ml murine anti-human TNF-α MAb (R&D Systems #MAB210). Wells were then blocked for 1 hr at room temperature with 200 μL/well of CaCl2-free ELISA buffer supplemented to contain 20 mg/ml BSA (standard ELISA buffer: […], 150 mM NaCl, 2 mM CaCl2, 0.15 mM thimerosal, pH 7.4). Plates were washed and replenished with 100 μl of test supernatants (diluted 1:3) or standards. Standards consisted of eleven 1.5-fold serial dilutions from a stock of 1 ng/ml recombinant human TNF (R&D Systems). Plates were incubated at room temperature for 1 hr on orbital shaker (300 rpm), washed and replenished with 100 μl/well of 0.5 μg/ml goat anti-human TNF-α (R&D systems #AB-210-NA) biotinylated at a 4:1 ratio. Plates were incubated for 40 min, washed and replenished with 100 μl/well of alkaline phosphatase-conjugated streptavidin (Jackson ImmunoResearch #016-050-084) at 0.02 μg/ml. Plates were incubated 30 min, washed and replenished with 200 μl/well of 1 mg/ml of p-nitrophenyl phosphate. After 30 min, plates were read at 405 nm on a Vmax plate reader.
Standard curve data were fit to a second order polynomial and unknown TNF-α concentrations determined from their OD by solving this equation for concentration. TNF concentrations were then plotted vs. test compound concentration using a second order polynomial. This equation was then used to calculate the concentration of test compounds causing a 50% reduction in TNF production.
On the technique in general: ELISA stands for enzyme-linked immunosorbent assay.
`O=C(Nc1ccc(Oc2cccc3ccccc23)nc1)c1c(Cl)cccc1Cl` [2-(1-naphthyloxy)-5-(2,6-dichlorophenylcarbonylamino) pyridine]: the IC50 is less than 15 µM.

`Cc1ccc(Oc2ccc(NC(=O)c3c(C)cccc3C)cn2)c(C)c1` [2-(2,4-dimethylphenoxy)-5-(2,6-dimethylphenylcarbonylamino)pyridine]: the IC50 was less than 15 µM.

As for `Cc1ccc(Oc2ccc(NC(=O)c3ccccc3C)cn2)c(C)c1` [2-(2,4-dimethylphenoxy)-5-(2-methylphenylcarbonylamino) pyridine], the IC50 is less than 15 µM.

In the case of `Cc1ncccc1Oc1ccc(NC(=O)c2c(Cl)cccc2Cl)cn1` [2-(2-methyl-3-pyridyloxy)-5-(2,6-dichlorophenylcarbonylamino)pyridine], the IC50 is less than 15 µM.

As for `Cc1cc(Cl)ccc1Oc1ccc(NC(=O)c2c(Cl)cccc2Cl)cn1` [2-(2-methyl-4-chlorophenoxy)-5-(2,6-dichlorophenylcarbonylamino)pyridine], the IC50 is less than 15 µM.

In the case of `Cc1cc(Cl)ccc1Oc1ccc(NC(=O)c2c(C)cccc2C)cn1` [2-(2-methyl-4-chlorophenoxy)-5-(2,6-dimethylphenylcarbonylamino)pyridine], the IC50 is less than 15 µM.

For `Cc1cc(Cl)ccc1Oc1ccc(NC(=O)c2ccccc2Cl)cn1` [2-(2-methyl-4-chlorophenoxy)-5-(2-chlorophenylcarbonylamino)pyridine], the IC50 was less than 15 µM.

`Cc1cc(Cl)ccc1Oc1ccc(NC(=O)c2c(C)noc2C)cn1` [2-(2-methyl-4-chlorophenoxy)-5-((3,5-dimethyl-4-isoxazolyl)carbonylamino)pyridine]: the IC50 was less than 15 µM.

Consider `Cc1ccccc1NC(=O)c1ccc(Nc2ccc(Cl)cc2C)nc1` [2-(2-methyl-4-chlorophenylamino)-5-(2-methylphenylaminocarbonyl)pyridine], for which the IC50 is less than 15 µM.

Take `Cc1cc(Cl)ccc1Nc1ccc(NC(=O)c2ccccc2C)cn1` [2-(2-methyl-4-chlorophenylamino)-5-(2-methylphenylcarbonylamino)pyridine]: the IC50 was less than 15 µM.

For the molecule `Cc1cc(F)ccc1Oc1ccc(NC(=O)c2c(Cl)cccc2Cl)cn1` [2-(2-methyl-4-fluorophenoxy)-5-(2,6-dichlorophenylcarbonylamino)pyridine], the IC50 is less than 15 µM.

With `Cc1cc(F)ccc1Oc1ccc(NC(=O)c2c(C)cccc2C)cn1` [2-(2-methyl-4-fluorophenoxy)-5-(2,6-dimethylphenylcarbonylamino)pyridine], the IC50 was less than 15 µM.

With `Cc1cc(F)ccc1Oc1ccc(NC(=O)c2ccccc2F)cn1` [2-(2-methyl-4-fluorophenoxy)-5-(2-fluorophenylcarbonylamino)pyridine], the IC50 was less than 15 µM.

With `Cc1cc(F)ccc1Oc1ccc(NC(=O)c2ccccc2C)cn1` [2-(2-methyl-4-fluorophenoxy)-5-(2-methylphenylcarbonylamino)pyridine], the IC50 was less than 15 µM.

As to `CC1CCCCC1Nc1ccc(NC(=O)c2c(Cl)cccc2Cl)cn1` (centres unmarked) [2-(2-methylcyclohexylamino)-5-(2,6-dichlorophenylcarbonylamino)pyridine], the IC50 was less than 15 µM.

As to `Cc1ccccc1C(=O)Nc1ccc(NC2CCCCC2C)nc1` (centres unmarked) [2-(2-methylcyclohexylamino)-5-(2-methylphenylcarbonylamino)pyridine], the IC50 is less than 15 µM.

As for `Cc1ccccc1Nc1ccc(NC(=O)c2c(C)cccc2C)cn1` [2-(2-methylphenylamino)-5-(2,6-dimethylphenylcarbonylamino)pyridine], the IC50 is less than 15 µM.

On to `Cc1ccccc1Nc1ccc(NC(=O)c2ccccc2C)cn1` [2-(2-methylphenylamino)-5-(2-methylphenylcarbonylamino)pyridine], for which the IC50 is less than 15 µM.

Consider `Cc1cccc(C)c1C(=O)Nc1ccc(Oc2ccc(Cl)cc2)nc1` [2-(4-chlorophenoxy)-5-(2,6-dimethylphenylcarbonylamino) pyridine], for which the IC50 is less than 15 µM.

On to `O=C(Nc1ccc(NC2CCCCC2)nc1)c1c(Cl)cccc1Cl` [2-cyclohexylamino-5-(2,6-dichlorophenylcarbonylamino) pyridine], for which the IC50 is less than 15 µM.

`Cc1cccc(C)c1C(=O)Nc1ccc(NC2CCCCC2)nc1` [2-cyclohexylamino-5-(2,6-dimethylphenylcarbonylamino) pyridine]: the IC50 was less than 15 µM.

As to `O=C(Nc1ccc(OC2CCCCC2)nc1)c1c(Cl)cccc1Cl` [2-cyclohexyloxy-5-(2,6-dichlorophenylcarbonylamino) pyridine], the IC50 is less than 15 µM.

For `Cc1cccc(C)c1C(=O)Nc1ccc(OC2CCCCC2)nc1` [2-cyclohexyloxy-5-(2,6-dimethylphenylcarbonylamino) pyridine], the IC50 is less than 15 µM.

With `O=C(Nc1ccc(OC2CCCCC2)nc1)c1ccccc1Cl` [2-cyclohexyloxy-5-(2-chlorophenylcarbonylamino)pyridine], the IC50 is less than 15 µM.

As for `Cc1ccccc1C(=O)Nc1ccc(OC2CCCCC2)nc1` [2-cyclohexyloxy-5-(2-methylphenylcarbonylamino)pyridine], the IC50 is less than 15 µM.
